Source: patent US20240166624A1, “PPARG INVERSE AGONISTS AND USES THEREOF” (Flare Therapeutics Inc., priority 2021, published 2024)

Key:
[1] = molecular target: T1, PPARG/RXRA LBD heterodimer (Homo sapiens, UniProt P37231); experiment: PPARγ-NCOR1 recruitment assay (TR-FRET, biotinylated NCOR1 ID2 peptide); format: biochemical; details: 80 nM Rosiglitazone, 3 hours, read-out: PPARG-NCOR recruitment assay EC50
T1 construct: His-TEV-Q203-Y477; Uniprot ID P37231-2; made in house; host or cells: E. coli
Procedure: PPARγ-NCOR1 Recruitment Assay:
Compound potency (EC50) and maximal extent of NCOR1 recruitment to PPARG were assessed a TR-FRET binding assay measuring association of a biotinylated NCOR1 ID2 peptide (Biotin-[…]-amide) to PPARG/RXRA LBD heterodimer. Specifically, a 20 microliters of TR-FRET master mix consisting of 2 nM WT PPARG LBD (E. coli expressed, His-TEV-Q203-Y477; Uniprot ID P37231-2), 2 nM WT RXRA LBD or mutant S427F RXRA LBD (E. coli expressed, Flag-TEV-E228-T462; […]. Mixtures were incubated for 3 hours and read in an EnVision plate reader (Perkin Elmer) with Ex/Em 615/665. To determine the potency (EC50) and extent of NCOR1 recruitment, TR-FRET ratios were normalized to the average ratio of DMSO control wells (0%) and to the average maximum ratio for positive control compound (T0070907 (2-chloro-5-nitro-N-4-pyridinyl-benzamide); defined as 100%) in CDD Vault and analyzed using the Levenberg-Marquardt algorithm.
T1 sequence (O75376 2251-2273 partner, one chain of several): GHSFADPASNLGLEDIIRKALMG

[2] = molecular target: T2, PPARG/RXRA LBD heterodimer (Homo sapiens, UniProt P37231); experiment: PPARγ-MED1 blockade assay (TR-FRET, biotinylated MED1 LxxLL peptide); format: biochemical; details: WT PPARG LBD/WT RXRA LBD, 80 nM Rosiglitazone, 3 hours
T2 construct: His-TEV-Q203-Y477; Uniprot ID P37231-2; made in house; host or cells: E. coli
T2 sequence (P37231 203-477 isoform P37231-2): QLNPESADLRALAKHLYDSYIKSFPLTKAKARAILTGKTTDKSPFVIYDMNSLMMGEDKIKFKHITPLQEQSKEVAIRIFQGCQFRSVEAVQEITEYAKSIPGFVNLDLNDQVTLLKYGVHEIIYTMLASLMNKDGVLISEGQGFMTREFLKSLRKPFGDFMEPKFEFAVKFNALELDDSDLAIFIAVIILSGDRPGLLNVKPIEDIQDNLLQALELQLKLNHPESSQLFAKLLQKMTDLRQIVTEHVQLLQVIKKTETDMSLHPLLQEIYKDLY
T2 sequence (P19793 228-462 partner limits assumed): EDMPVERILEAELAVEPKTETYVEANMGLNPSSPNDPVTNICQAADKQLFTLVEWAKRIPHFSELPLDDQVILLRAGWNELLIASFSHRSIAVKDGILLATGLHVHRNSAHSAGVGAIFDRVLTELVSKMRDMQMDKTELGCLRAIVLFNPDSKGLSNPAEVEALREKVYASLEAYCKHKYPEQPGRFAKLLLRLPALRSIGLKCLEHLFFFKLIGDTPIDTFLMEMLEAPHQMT
Procedure: PPARγ-MED1 Blockade Assay:
Compound potency (IC50) and maximal extent of MED1 repulsion to PPARG were assessed a TR-FRET binding assay measuring association of a biotinylated MED1 LxxLL peptide (Biotin-[…]-amide) to PPARG/RXRA LBD heterodimer. Specifically, a 20 microliters of TR-FRET master mix consisting of 2 nM WT PPARG LBD (E. coli expressed, His-TEV-Q203-Y477; Uniprot ID P37231-2), 2 nM WT RXRA LBD (E. coli expressed, Flag-TEV-E228-T462; […]. Mixtures were incubated for 3 hours and read in an EnVision plate reader (Perkin Elmer) with Ex/Em 615/665. To determine the potency (IC50) and extent of MED1 repulsion, TR-FRET ratios were normalized to the average ratio of DMSO control wells (0%) and to the average minimum ratio for positive control compound (GW9662 (2-chloro-5-nitrobenzanilide); defined as 100%) in CDD Vault and analyzed using the Levenberg-Marquardt algorithm.

[3] = test system: ANGPTL4, a PPARG target gene, in HT1197 (RXRA S427F mutation) cells; experiment: Bladder cancer pharmacodynamic assay, HT1197 cell assay (qPCR of ANGPTL4); format: cell-based; details: Homo sapiens, 24 hours, 100 nM compound, relative to DMSO control
Procedure: Bladder Cancer Pharmacodynamic Assay
5637 (PPARG amplified) and HT1197 (RXRA S427F mutation) cells were used for assessment of modulation of PPARG target genes using quantitative PCR. Cells were treated for 24 hours with PPARG inverse agonists prior to analysis of FABP4 (IDT, Cat: Hs.PT 58.20106818) and ANGPTL4 (IDT, Cat: Hs.PT 58.25480012) expression, with expression of the housekeeping gene TBP (IDT, Cat: Hs.PT 58v.39858774) used to normalize expression across samples. Quantitative PCR was performed using an ABI QuantStudio 7 Flex Reaction system. Data were analyzed and reported relative to DMSO control using the comparative Ct method (ΔΔCt).

Row | Compound | EC50 [1] | EC50 [2] | inhibition at 0.1 µM [3]
1 | N#Cc1ccc(Cl)c(-c2cc(=O)c3c(F)c(-c4cnc(C(F)(F)F)nc4)c(F)cc3[nH]2)c1 [Example 50, 4-chloro-3-(5,7-difluoro-4-oxo-6-(2-(trifluoromethyl)pyrimidin-5-yl)-1,4-dihydroquinolin-2-yl)benzonitrile] | 100 to 1000 nM | 100 to 1000 nM | 80%
2 | N#Cc1ccc(Cl)c(-c2cc(=O)c3c(F)c(-c4ccnc(C(F)F)c4)c(F)cc3[nH]2)c1 [Example 51, 4-chloro-3-(6-(2-(difluoromethyl)pyridin-4-yl)-5,7-difluoro-4-oxo-1,4-dihydroquinolin-2-yl)benzonitrile] | 100 to 1000 nM | 100 to 1000 nM | 56%
3 | CN(C)CCn1cc(-c2c(F)cc3[nH]c(-c4cc(C#N)ccc4Cl)cc(=O)c3c2F)cn1 [Example 52, 4-chloro-3-(6-(1-(2-(dimethylamino)ethyl)-1H-pyrazol-4-yl)-5,7-difluoro-4-oxo-1,4-dihydroquinolin-2-yl)benzonitrile] | 1000 to 10000 nM | 1000 to 10000 nM | 29%
4 | N#Cc1ccc(Cl)c(-c2cc(=O)c3c(F)c(-c4ccnc(C(F)(F)F)c4)c(F)cc3[nH]2)c1 [Example 53, 4-chloro-3-(5,7-difluoro-4-oxo-6-(2-(trifluoromethyl)pyridin-4-yl)-1,4-dihydroquinolin-2-yl)benzonitrile] | 100 to 1000 nM | 100 to 1000 nM | 36%
5 | N#Cc1ccc(Cl)c(-c2cc(=O)c3c(F)c(-c4cc[nH]c(=O)c4)c(F)cc3[nH]2)c1 [Example 54, 4-chloro-3-(5,7-difluoro-4-oxo-6-(2-oxo-1,2-dihydropyridin-4-yl)-1,4-dihydroquinolin-2-yl)benzonitrile] | 100 to 1000 nM | 100 to 1000 nM | 20%
6 | N#Cc1ccc(Cl)c(-c2cc(=O)c3c(F)c(-c4ccc(C(F)(F)F)cn4)c(F)cc3[nH]2)c1 [Example 55, 4-chloro-3-(5,7-difluoro-4-oxo-6-(5-(trifluoromethyl)pyridin-2-yl)-1,4-dihydroquinolin-2-yl)benzonitrile] | 100 to 1000 nM | 100 to 1000 nM | 65%
7 | N#Cc1ccc(Cl)c(-c2cc(=O)c3c(F)c(-c4ccc5c(c4)NC(=O)C5)c(F)cc3[nH]2)c1 [Example 56, 4-chloro-3-(5,7-difluoro-4-oxo-6-(2-oxoindolin-6-yl)-1,4-dihydroquinolin-2-yl)benzonitrile] | 100 to 1000 nM | 100 to 1000 nM | 26%
8 | COCc1c(F)cc2[nH]c(-c3cc(C#N)ccc3Cl)cc(=O)c2c1F [Example 57, 4-chloro-3-(5,7-difluoro-6-(methoxymethyl)-4-oxo-1,4-dihydroquinolin-2-yl)benzonitrile] | 100 to 1000 nM | 100 to 1000 nM | 87%
9 | N#Cc1ccc(Cl)c(-c2cc(=O)c3c(F)c(-c4cnn(C(F)(F)F)c4)c(F)cc3[nH]2)c1 [Example 58, 4-chloro-3-(5,7-difluoro-4-oxo-6-(1-(trifluoromethyl)-1H-pyrazol-4-yl)-1,4-dihydroquinolin-2-yl)benzonitrile] | 100 to 1000 nM | 100 to 1000 nM | 88%
10 | N#Cc1ccc(Cl)c(-c2cc(=O)c3c(F)c(-c4ccc5c(c4)C(=O)NC5)c(F)cc3[nH]2)c1 [Example 59, 4-chloro-3-(5,7-difluoro-4-oxo-6-(3-oxoisoindolin-5-yl)-1,4-dihydroquinolin-2-yl)benzonitrile] | 10 to 100 nM | 10 to 100 nM | 42%
11 | Cc1cnc(-c2c(F)cc3[nH]c(-c4cc(C#N)ccc4Cl)cc(=O)c3c2F)cn1 [Example 60, 4-chloro-3-(5,7-difluoro-6-(5-methylpyrazin-2-yl)-4-oxo-1,4-dihydroquinolin-2-yl)benzonitrile] | 100 to 1000 nM | 100 to 1000 nM | 80%
12 | N#Cc1ccc(Cl)c(-c2cc(=O)c3c(F)c(-c4ccc(C(F)F)cn4)c(F)cc3[nH]2)c1 [Example 61, 4-chloro-3-(6-(5-(difluoromethyl)pyridin-2-yl)-5,7-difluoro-4-oxo-1,4-dihydroquinolin-2-yl)benzonitrile] | 100 to 1000 nM | 100 to 1000 nM | 70%
13 | N#Cc1ccc(Cl)c(-c2cc(=O)c3c(F)c(-c4cn[nH]c4)c(F)cc3[nH]2)c1 [Example 62, 4-chloro-3-(5,7-difluoro-4-oxo-6-(1H-pyrazol-4-yl)-1,4-dihdroquinolin-2-yl)benzonitrile] | 100 to 1000 nM | 100 to 1000 nM | 40%
14 | Cn1ncc(-c2c(F)cc3[nH]c(-c4cc(C#N)ccc4Cl)cc(=O)c3c2F)cc1=O [Example 63, 4-chloro-3-(5,7-difluoro-6-(1-methyl-6-oxo-1,6-dihydropyridazin-4-yl)-4-oxo-1,4-dihydroquinolin-2-yl)benzonitrile] | 100 to 1000 nM | 100 to 1000 nM | 24%
15 | N#Cc1ccc(Cl)c(-c2cc(=O)c3c(F)c(-c4ccc(CO)nc4)c(F)cc3[nH]2)c1 [Example 64, 4-chloro-3-(5,7-difluoro-6-(6-(hydroxymethyl)pyridin-3-yl)-4-oxo-1,4-dihydroquinolin-2-yl)benzonitrile] | 100 to 1000 nM | 100 to 1000 nM | 59%
16 | Cc1nc(-c2c(F)cc3[nH]c(-c4cc(C#N)ccc4Cl)cc(=O)c3c2F)c[nH]1 [Example 65, 4-chloro-3-(5,7-difluoro-6-(2-methyl-1H-imidazol-4-yl)-4-oxo-1,4-dihydroquinolin-2-yl)benzonitrile] | 100 to 1000 nM | 100 to 1000 nM | 44%
17 | N#Cc1ccc(Cl)c(-c2cc(=O)c3c(F)c(-c4c[nH]c(C(F)(F)F)n4)c(F)cc3[nH]2)c1 [Example 67, 4-chloro-3-(5,7-difluoro-4-oxo-6-(2-(trifluoromethyl)-1H-imidazol-4-yl)-1,4-dihydroquinolin-2-yl)benzonitrile] | 10 to 100 nM | 10 to 100 nM | 22%
18 | N#Cc1ccc(Cl)c(-c2cc(=O)c3c(F)c(-c4nccc(=O)[nH]4)c(F)cc3[nH]2)c1 [Example 68, 4-chloro-3-(5,7-difluoro-4-oxo-6-(6-oxo-1,6-dihydropyrimidin-2-yl)-1,4-dihydroquinolin-2-yl)benzonitrile] | 1000 to 10000 nM | 1000 to 10000 nM | 28%
19 | CC(C)(CO)n1cc(-c2c(F)cc3[nH]c(-c4cc(C#N)ccc4Cl)cc(=O)c3c2F)cn1 [Example 69, 4-chloro-3-(5,7-difluoro-6-(1-(1-hydroxy-2-methylpropan-2-yl)-1H-pyrazol-4-yl)-4-oxo-1,4-dihydroquinolin-2-yl)benzonitrile] | 100 to 1000 nM | 100 to 1000 nM | 68%
20 | Cc1ccc(-c2c(F)cc3[nH]c(-c4cc(C#N)ccc4Cl)cc(=O)c3c2F)nn1 [Example 70, 4-chloro-3-(5,7-difluoro-6-(6-methylpyridazin-3-yl)-4-oxo-1,4-dihydroquinolin-2-yl)benzonitrile] | 1000 to 10000 nM | 1000 to 10000 nM | 66%
